Assay results as given in patent publication US20080114007A1 (priority 2006, published 2008).

Each compound was assayed against CSF-1R (Homo sapiens, UniProt P07333) (assay: Peptide (non-phosphorylated) assay, fluorescence polarization competition immunoassay). Details: 0.7 nM CSF-1R, 308 μM SYEGNSYTFIDPTQ peptide, 1 mM ATP, 80 min; mean of at least three determinations; read-out: c-fms Peptide IC50.
Assay type: biochemical
Description: The kinase reaction was initiated by adding 1 μL of 10 mM ATP in assay buffer. […] Positive and negative control wells were included on each plate, where 4% DMSO in assay buffer was substituted for the compound; in addition, positive control wells received 1.2 μL of 50 mM EDTA before the start of the reaction.
The plates were covered and incubated at room temperature for 80 min. Reactions were stopped by addition of 1.2 μL of 50 mM EDTA. Each well then received 10 μL of a 1:1:3 mixture of 10× anti-phosphotyrosine antibody, 10×PTK green tracer, and FP dilution buffer, respectively (Cat. # P2837, Invitrogen, Carlsbad, Calif.). The plates were covered, incubated for 30 min at room temperature, and the fluorescence polarization was read on an Analyst plate reader (Molecular Devices).

Chain of CSF-1R (P07333 20-972): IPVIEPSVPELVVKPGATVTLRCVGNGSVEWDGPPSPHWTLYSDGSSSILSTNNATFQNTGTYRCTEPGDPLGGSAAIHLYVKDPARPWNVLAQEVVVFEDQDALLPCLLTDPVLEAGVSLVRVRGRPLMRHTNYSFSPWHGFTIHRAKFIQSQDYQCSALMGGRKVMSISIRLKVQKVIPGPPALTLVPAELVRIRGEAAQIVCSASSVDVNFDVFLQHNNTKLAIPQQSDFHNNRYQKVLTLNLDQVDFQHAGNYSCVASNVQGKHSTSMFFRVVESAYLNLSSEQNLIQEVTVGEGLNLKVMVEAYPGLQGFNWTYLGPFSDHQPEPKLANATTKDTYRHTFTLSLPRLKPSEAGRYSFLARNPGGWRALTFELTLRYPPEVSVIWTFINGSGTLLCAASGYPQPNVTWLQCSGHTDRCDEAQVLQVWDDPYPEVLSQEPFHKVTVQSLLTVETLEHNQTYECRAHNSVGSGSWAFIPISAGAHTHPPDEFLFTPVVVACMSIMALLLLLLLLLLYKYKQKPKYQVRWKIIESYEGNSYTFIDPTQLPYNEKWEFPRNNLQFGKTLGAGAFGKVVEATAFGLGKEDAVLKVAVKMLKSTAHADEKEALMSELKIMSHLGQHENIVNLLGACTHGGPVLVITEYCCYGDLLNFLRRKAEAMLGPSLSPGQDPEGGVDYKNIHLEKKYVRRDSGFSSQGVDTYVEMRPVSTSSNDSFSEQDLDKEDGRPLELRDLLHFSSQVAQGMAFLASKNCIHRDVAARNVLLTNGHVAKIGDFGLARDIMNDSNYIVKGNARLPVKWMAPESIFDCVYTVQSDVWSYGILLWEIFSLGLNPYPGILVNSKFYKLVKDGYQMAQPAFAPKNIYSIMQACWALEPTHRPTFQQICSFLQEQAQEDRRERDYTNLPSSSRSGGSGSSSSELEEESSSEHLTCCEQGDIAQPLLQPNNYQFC

Compound | IC50
O=C(NCCO)c1cn(C2CCCC2)c2nc(Nc3ccc(CCN4CCCC4)cc3)ncc2c1=O [Cpd 43, 8-cyclopentyl-5-oxo-2-[4-(2-pyrrolidin-1-yl-ethyl)-phenylamino]-5,8-dihydro-pyrido[2,3-d]pyrimidine-6-carboxylic acid (2-hydroxy-ethyl)-amide] | 31 nM
CONC(=O)c1cn(-c2ccc3c(c2)CCC3)c2nc(Nc3cccc(C4CCCN(C)C4)c3)ncc2c1=O (stereo not drawn) [Cpd 271, 8-indan-5-yl-2-[3-(1-methyl-piperidin-3-yl)-phenylamino]-5-oxo-5,8-dihydro-pyrido[2,3-d]pyrimidine-6-carboxylic acid methoxy-amide] | 3.2 nM
CC(=O)N1CCC(c2ccc(Nc3ncc4c(=O)c(C(N)=O)cn(-c5ccc6c(c5)CCC6)c4n3)cc2)CC1 [Cpd 126, 2-[4-(1-acetyl-piperidin-4-yl)-phenylamino]-8-indan-5-yl-5-oxo-5,8-dihydro-pyrido[2,3-d]pyrimidine-6-carboxylic acid amide] | 1.8 nM
CONC(=O)c1cn(-c2ccc3c(c2)CCC3)c2nc(Nc3ccc4c(ccn4C)c3)ncc2c1=O [Cpd 291, 8-indan-5-yl-2-(1-methyl-1H-indol-5-ylamino)-5-oxo-5,8-dihydro-pyrido[2,3-d]pyrimidine-6-carboxylic acid methoxy-amide] | 1.3 nM
CCONC(=O)c1cn(C2CCCCC2)c2nc(Nc3ccc(C[C@H]4COC(=O)N4)cc3)ncc2c1=O [Cpd 23, (S)-8-cyclohexyl-5-oxo-2-[4-(2-oxo-oxazolidin-4-ylmethyl)-phenylamino]-5,8-dihydro-pyrido[2,3-d]pyrimidine-6-carboxylic acid ethoxy-amide] | 3 nM
CONC(=O)c1cn(C2CCCC2)c2nc(Nc3ccc(CN4CCCC4=O)cc3)ncc2c1=O [Cpd 37, 8-cyclopentyl-5-oxo-2-[4-(2-oxo-pyrrolidin-1-ylmethyl)-phenylamino]-5,8-dihydro-pyrido[2,3-d]pyrimidine-6-carboxylic acid methoxy-amide] | 1.5 nM
CCc1ccc(-n2cc(C(=O)NOC)c(=O)c3cnc(Nc4ccc(C5CCN(CC(F)(F)F)CC5)cc4)nc32)cc1 [Cpd 188, 8-(4-ethyl-phenyl)-5-oxo-2-{4-[1-(2,2,2-trifluoro-ethyl)-piperidin-4-yl]-phenylamino}-5,8-dihydro-pyrido[2,3-d]pyrimidine-6-carboxylic acid methoxy-amide] | 4.1 nM
CONC(=O)c1cn(-c2ccc3c(c2)CCC3)c2nc(Nc3ccc(CCN4CC(O)C4)cc3)ncc2c1=O [Cpd 254, 2-{4-[2-(3-hydroxy-azetidin-1-yl)-ethyl]-phenylamino}-8-indan-5-yl-5-oxo-5,8-dihydro-pyrido[2,3-d]pyrimidine-6-carboxylic acid methoxy-amide] | 0.52 nM
CONC(=O)c1cn(C2CCCC2)c2nc(Nc3ccc(CCN4CCN(C)CC4)cc3)ncc2c1=O [Cpd 48, 8-cyclopentyl-2-{4-[2-(4-methyl-piperazin-1-yl)-ethyl]-phenylamino}-5-oxo-5,8-dihydro-pyrido[2,3-d]pyrimidine-6-carboxylic acid methoxy-amide] | 1.5 nM
COCCNC(=O)c1cn(-c2ccc3c(c2)CCC3)c2nc(Nc3ccc(CCN4CCCC4)cc3)ncc2c1=O [Cpd 132, 8-indan-5-yl-5-oxo-2-[4-(2-pyrrolidin-1-yl-ethyl)-phenylamino]-5,8-dihydro-pyrido[2,3-d]pyrimidine-6-carboxylic acid (2-methoxy-ethyl)-amide] | 12 nM
CONC(=O)c1cn(-c2ccc3c(c2)CCC3)c2nc(Nc3ccc(CCN4CCC5(CC4)OCCCO5)cc3)ncc2c1=O [Cpd 73, 2-{4-[2-(1,5-dioxa-9-aza-spiro[5.5]undec-9-yl)-ethyl]-phenylamino}-8-indan-5-yl-5-oxo-5,8-dihydro-pyrido[2,3-d]pyrimidine-6-carboxylic acid methoxy-amide] | 0.84 nM
CONC(=O)c1cn(-c2ccc(OC(F)(F)F)cc2)c2nc(Nc3ccc(C4CCN(C)CC4)cc3)ncc2c1=O [Cpd 159, 2-[4-(1-methylpiperidin-4-yl)-phenylamino]-5-oxo-8-(4-trifluoromethoxyphenyl)-5,8-dihydropyrido[2,3-d]pyrimidine-6-carboxylic acid methoxy-amide] | 0.66 nM

Now from value to compound:

IC50 | Compound
10 nM | CONC(=O)c1cn(-c2cnc3c(c2)CCC3)c2nc(Nc3ccc(CCO)cc3)ncc2c1=O [Cpd 227, 8-(6,7-dihydro-5H-[1]pyrindin-3-yl)-2-[4-(2-hydroxy-ethyl)-phenylamino]-5-oxo-5,8-dihydro-pyrido[2,3-d]pyrimidine-6-carboxylic acid methoxy-amide]
7 nM | CONC(=O)c1cn(-c2cnc3c(c2)CCC3)c2nc(Nc3ccc(C4CCN(C)CC4)cc3)ncc2c1=O [Cpd 225, 8-(6,7-dihydro-5H-[1]pyrindin-3-yl)-2-[4-(1-methyl-piperidin-4-yl)-phenylamino]-5-oxo-5,8-dihydro-pyrido[2,3-d]pyrimidine-6-carboxylic acid methoxy-amide]
6.5 nM | CCNC(=O)c1cn(-c2ccc3c(c2)CCC3)c2nc(Nc3cccc(CCCN(C)C)c3)ncc2c1=O [Cpd 117, 2-[3-(3-dimethylamino-propyl)-phenylamino]-8-indan-5-yl-5-oxo-5,8-dihydro-pyrido[2,3-d]pyrimidine-6-carboxylic acid ethylamide]
4.2 nM | CONC(=O)c1cn(-c2ccc3c(c2)CCC3)c2nc(Nc3ccc(CCc4ncn[nH]4)cc3)ncc2c1=O [Cpd 190, 8-indan-5-yl-5-oxo-2-{4-[2-(1H-[1,2,4]triazol-3-yl)-ethyl]-phenylamino}-5,8-dihydro-pyrido[2,3-d]pyrimidine-6-carboxylic acid methoxy-amide]
1.8 nM | CONC(=O)c1cn(-c2ccc3c(c2)CCC3)c2nc(Nc3cccc(N4CCN(S(C)(=O)=O)CC4)c3)ncc2c1=O [Cpd 201, 8-indan-5-yl-2-[3-(4-methanesulfonyl-piperazin-1-yl)-phenylamino]-5-oxo-5,8-dihydro-pyrido[2,3-d]pyrimidine-6-carboxylic acid methoxy-amide]
1.2 nM | CONC(=O)c1cn(-c2ccc3c(c2)CCC3)c2nc(Nc3cccc(CCN4CCN(C(C)=O)CC4)c3)ncc2c1=O [Cpd 204, 2-{3-[2-(4-acetyl-piperazin-1-yl)-ethyl]-phenylamino}-8-indan-5-yl-5-oxo-5,8-dihydro-pyrido[2,3-d]pyrimidine-6-carboxylic acid methoxy-amide]
1.1 nM | CONC(=O)c1cn(-c2ccc3c(c2)CCC3)c2nc(Nc3cccc(N(C)C)c3)ncc2c1=O [Cpd 326, 2-(3-dimethylamino-phenylamino)-8-indan-5-yl-5-oxo-5,8-dihydro-pyrido[2,3-d]pyrimidine-6-carboxylic acid methoxy-amide]
0.76 nM | CONC(=O)c1cn(-c2ccc3c(c2)CCC3)c2nc(Nc3ccc(CCn4ccnc4)cc3)ncc2c1=O [Cpd 171, 2-[4-(2-imidazol-1-yl-ethyl)-phenylamino]-8-indan-5-yl-5-oxo-5,8-dihydro-pyrido[2,3-d]pyrimidine-6-carboxylic acid methoxy-amide]
0.7 nM | CCc1ccc(-n2cc(C(=O)NOC)c(=O)c3cnc(Nc4cc(OC)c(OC)c(OC)c4)nc32)cc1 [Cpd 305, 8-(4-ethyl-phenyl)-5-oxo-2-(3,4,5-trimethoxy-phenylamino)-5,8-dihydro-pyrido[2,3-d]pyrimidine-6-carboxylic acid methoxy-amide]
0.62 nM | CONC(=O)c1cn(-c2ccc3c(c2)CCC3)c2nc(Nc3ccc(CCN(C)C4CCOCC4)cc3)ncc2c1=O [Cpd 74, 8-indan-5-yl-2-(4-{2-[methyl-(tetrahydro-pyran-4-yl)-amino]-ethyl}-phenylamino)-5-oxo-5,8-dihydro-pyrido[2,3-d]pyrimidine-6-carboxylic acid methoxy-amide]
0.6 nM | CCc1ccc(-n2cc(C(=O)NOC)c(=O)c3cnc(Nc4ccc5c(c4)CC(=O)N5)nc32)cc1 [Cpd 304, 8-(4-ethyl-phenyl)-5-oxo-2-(2-oxo-2,3-dihydro-1H-indol-5-ylamino)-5,8-dihydro-pyrido[2,3-d]pyrimidine-6-carboxylic acid methoxy-amide]
0.5 nM | CONC(=O)c1cn(-c2ccc3c(c2)CCC3)c2nc(Nc3ccc(C4C[C@@]5(C)O[C@@](C)(C4)[C@H]4OC(C)(C)O[C@H]45)cc3)ncc2c1=O (stereo partly drawn) [Cpd 315, 8-indan-5-yl-5-oxo-2-[4-(2aR,1R,7S,6aS)-(1,4,4,7-tetramethyl-3,5,11-trioxa-tricyclo[5.3.1.0^2,6]undec-9-yl)-phenylamino]-5,8-dihydro-pyrido[2,3-d]pyrimidine-6-carboxylic acid methoxy-amide]
0.4 nM | CCc1ccc(-n2cc(C(=O)NOC)c(=O)c3cnc(Nc4ccc(C5CCN(CC)CC5)cc4)nc32)cc1 [Cpd 157, 8-(4-ethyl-phenyl)-2-[4-(1-ethyl-piperidin-4-yl)-phenylamino]-5-oxo-5,8-dihydro-pyrido[2,3-d]pyrimidine-6-carboxylic acid methoxy-amide]
0.4 nM | CCc1ccc(-n2cc(C(=O)NOC)c(=O)c3cnc(Nc4ccc(OC5CCNCC5)cc4)nc32)cc1 [Cpd 307, 8-(4-ethyl-phenyl)-5-oxo-2-[4-(piperidin-4-yloxy)-phenylamino]-5,8-dihydro-pyrido[2,3-d]pyrimidine-6-carboxylic acid methoxy-amide]

Same assay, conditions: c-fms Peptide IC50, 0.7 nM CSF-1R, 308 μM SYEGNSYTFIDPTQ peptide, 1 mM ATP, 80 min; mean of at least three determinations

IC50 | Compound
1.7 nM | CONC(=O)c1cn(-c2ccc3c(c2)CCC3)c2nc(Nc3ccc(CCN4CCC(F)(F)CC4)cc3)ncc2c1=O [Cpd 234, 2-{4-[2-(4,4-difluoro-piperidin-1-yl)-ethyl]-phenylamino}-8-indan-5-yl-5-oxo-5,8-dihydro-pyrido[2,3-d]pyrimidine-6-carboxylic acid methoxy-amide]
